Converted amounts (≈) assume the structure as drawn. Square brackets hold non-standard residues; d marks the D form. Peptide text beside a SMILES is read from it. * marks the point of attachment. NH(1-CH2NMe2-cBu) = CN(C)CC1(N*)CCC1; Oxazole4CO(2-Me) = Cc1nc(C(=O)*)co1; hCha = N[C@@H](CCC1CCCCC1)C(=O)O; Aib = CC(C)(N)C(=O)O; βAla = NCCC(=O)O
Key:
[1] = tested on: axenic Leishmania donovani MHOM-ET-67/L82 amastigotes; assay: In vitro antiprotozoal assay, axenic amastigotes; format: cell-based; conditions: axenic amastigotes; read-out: L.don.ax. IC50
Description: (§1) The testing of the inventive compounds against Leishmania donovani (strain MHOM/ET/67/L82) was performed in 96 well plates at concentrations in serial dilutions. Tests were done in triplicate.

[2] = tested on: intracellular Leishmania donovani MHOM-ET-67/L82 amastigotes; assay: In vitro antiprotozoal assay, intracellular amastigotes; format: cell-based; conditions: intracellular amastigotes; read-out: L.don.InMac IC50
Description: as §1

rat myoblast cells (L6) = assay: Cytotoxicity assay (Alamar Blue) on L6-cells; format: cell-based
Description: Tests were done in triplicate.
The plates were incubated for additional 2 h.

[3] = tested on: Staphylococcus aureus ATCC BAA-1556, USA300 MRSA; assay: microbe, parasite or virus in culture; format: cell-based
Description: Pre-formulated compound solution was diluted in 100% DMSO to prepare a 1.6 mg/mL working stock solution. […] The concentration range was 0.032 to 32 μg/mL.

[4] = tested on: S. aureus (USA300 MRSA, BAA-1556); assay: S. aureus dermal infection model in ICR mice, CFU/skin; format: in vivo, Staphylococcus aureus; conditions: 25 hours post inoculation; topical BID at 1 and 7 h post infection, 20 μL/mouse; 6027 1% in DMSO, fusidic acid 2%
Description: Inoculum preparation. The testing strain, S. aureus USA300 MRSA (BAA-1556), was obtained from the frozen working stock and thawed at room temperature. A 0.2 mL aliquot was inoculated into 20 mL Brain-Heart Infusion broth (BHI) and then incubated at 35-37° C. with shaking (120 rpm) for 8 h. Bacterial cells in the 20 mL culture were pelleted by centrifugation at 3,500×g for 15 minutes and then re-suspended in 10 mL cold PBS (>8.0×10^9 CFU/mL, OD620 1.8-2.0). The culture was then diluted in PBS to the target inoculum of 1.0×10^7 CFU/mL. The actual bacterial counts were determined by plating dilutions onto nutrient agar (NA) plates followed by 20-24 h incubation and colony counting. The actual CFU counts were 1.04×10^7 CFU/mL.
S. aureus (USA300 MRSA, BAA-1556) dermal infection model. Groups of 5 female ICR mice weighing 24±2 g were used. Animals were anesthetized with etomidate-lipuro emulsion (20 mg/10 mL) at 20 mg/kg by intravenous (IV) injection, and then the fur on the back was removed by an electric shaver, and the epidermal layer was disrupted with an abrasive paper. Mice were inoculated topically (TOP) on the wound area with S. aureus (MRSA, BAA-1556) suspension, 5 μL/mouse. The target inoculation density was 5×10^4 CFU/mouse and the actual inoculum count 5.2×10^4 CFU/mouse. Animals were housed separately after infection. Compound 6027 in DMSO at 1% was administered topically (TOP) twice (BID) at 1 and 7 h post infection. Reference control agent, fusidic acid cream at 20 mg/gram (2%), was administered TOP BID at 1 and 7 h post infection. One infected and untreated group was sacrificed at 1 h after infection for the initial (baseline) bacterial counts. The dose volumes were 20 μL/mouse for all dosing groups.
Animals were sacrificed at 1 or 25 h after inoculation with CO2 asphyxiation. The infected skin samples of the wound infection (around 2 cm 2 areas) were excised and were homogenized in 1 mL PBS (pH 7.4) with a polytron homogenizer. A 0.1 mL aliquot of each homogenate was used for serial 10-fold dilutions and plated onto NA plates for bacterial enumeration. The bacterial counts (CFU/skin) in skin tissues were calculated and the percentage decrease in counts compared to the corresponding vehicle control (placebo) was calculated with the following formula: Decrease (%)=[(CFU/skin of placebo —CFU/skin of treatment)/(CFU/skin of placebo)]×100%.

[5] = tested on: Staphylococcus aureus ATCC BAA-1556; assay: microbe, parasite or virus in culture; format: cell-based; conditions: Staphylococcus aureus, ATCCBAA1556; reference compound; ATCC BAA-1556, Methicillin resistant; read-out: MIC (Concurrent)
[6] = tested on: Staphylococcus aureus ECL 2963646; assay: microbe, parasite or virus in culture; format: cell-based; conditions: Staphylococcus aureus, ECL2963646, reference compound, read-out: MIC (Concurrent)
[7] = tested on: Staphylococcus aureus NARSA NRS22; assay: microbe, parasite or virus in culture; format: cell-based; conditions: Staphylococcus aureus, reference compound, read-out: MIC (Concurrent)
[8] = tested on: Staphylococcus aureus NARSA VRS2; assay: microbe, parasite or virus in culture; format: cell-based; conditions: Staphylococcus aureus, reference compound, read-out: MIC (Concurrent)
[9] = tested on: Streptococcus agalactiae ATCC 12386; assay: MIC broth microdilution, method 1; format: cell-based; conditions: Streptococcus agalactiae, ATCC12386, reference compound, read-out: MIC (Concurrent)
[10] = tested on: Streptococcus pyogenes ATCC 19615; assay: MIC broth microdilution, method 1; format: cell-based; conditions: Streptococcus pyogenes, ATCC19615, reference compound, read-out: MIC (Concurrent)
[11] = tested on: Staphylococcus aureus ATCC BAA-1717; assay: microbe, parasite or virus in culture; format: cell-based; conditions: Staphylococcus aureus, ATCCBAA1717, read-out: MIC (Concurrent) μg/mL
[12] = tested on: Staphylococcus aureus ATCC 29213; assay: MIC broth microdilution, method 1; format: cell-based; conditions: Staphylococcus aureus, ATCC29213, reference compound, read-out: MIC (Concurrent)
[13] = tested on: Staphylococcus aureus NARSA NRS119; assay: microbe, parasite or virus in culture; format: cell-based; conditions: Staphylococcus aureus, NRS119, read-out: MIC (Concurrent) μg/mL
[14] = tested on: Staphylococcus aureus NARSA NRS127; assay: microbe, parasite or virus in culture; format: cell-based; conditions: Staphylococcus aureus, NRS127, read-out: MIC (Concurrent) μg/mL
[15] = tested on: Staphylococcus aureus NARSA NRS382; assay: microbe, parasite or virus in culture; format: cell-based; conditions: Staphylococcus aureus, NRS382, read-out: MIC (Concurrent) μg/mL
[16] = tested on: Staphylococcus aureus NARSA NRS383; assay: microbe, parasite or virus in culture; format: cell-based; conditions: Staphylococcus aureus, NRS383, read-out: MIC (Concurrent) μg/mL
[17] = tested on: Staphylococcus aureus ATCC 33591; assay: microbe, parasite or virus in culture; format: cell-based; conditions: Staphylococcus aureus, ATCC33591, read-out: MIC (Concurrent) μg/mL
[18] = tested on: Clostridium difficile ATCC BAA-1805; assay: microbe, parasite or virus in culture; conditions: Clostridioides difficile, ATCCBAA1805, read-out: MIC (Concurrent) μg/mL
Description: The antibacterial activity of inventive compounds was determined in duplicate in a Minimum Inhibitory Concentration (MIC) assay.
The antibacterial activity of 6027 acetate was measured using the in vitro broth microdilution assay under assay conditions described by the Clinical and Laboratory Standards Institute. […] Pre-formulated DMSO stock solution (26.67 mg/mL) was provided by sponsor. The 26.67 mg/mL stock solution was then diluted in DMSO to prepare a 6.4 mg/mL working stock solution. The 6.4 mg/mL working stock solution was diluted by 2-fold serial titrations in DMSO, for a total of 11 test concentrations. A 4 μl aliquot of each dilution was added to 196 of broth medium seeded with the organism suspension in wells of a 96 well plate (bacterial count: 2 −8×10^5 colony forming units/mL final). The final volume was 200 μl in each well and the final DMSO concentration was 2 percent. Test concentrations were 128 to 0.125 μg/mL.
Following incubation, the plates were visually examined, and wells were scored for growth or complete growth inhibition to define the minimum inhibitory concentration. […] Vehicle-control and Vancomycin or Linezolid, as depicted at Table 8, were used as blank and positive controls, respectively.

`Cc1nc(C(=O)N2CCC[C@H]2C(=O)N[C@@H](CCC2CCCCC2)C(=O)N[C@@H](CC(C)C)C(=O)NC(C)(C)C(=O)N[C@@H](CC(C)C)C(=O)N[C@@H](CC(C)C)C(=O)NC(C)(C)C(=O)NC(C)(C)C(=O)NCCC(=O)NC2(CN(C)C)CCC2)co1` [Compound 6025, (2S)-2-[(2S)-4-cyclohexyl-2-{[(2S)-1-(2-methyl-1,3-oxazole-4-carbonyl)pyrrolidin-2-yl]formamido}butanamido]-N-(1-{[(1S)-1-{[(1S)-1-({1-[(1-{[2-({1-[(dimethylamino)methyl]cyclobutyl}carbamoyl)ethyl]carbamoyl}-1-methylethyl)carbamoyl]-1-methylethyl}carbamoyl)-3-methylbutyl]carbamoyl}-3-methylbutyl]carbamoyl}-1-methylethyl)-4-methylpentanamide] ({Oxazole4CO(2-Me)}-P[hCha]L[Aib]LL[Aib][Aib][βAla]-{NH(1-CH2NMe2-cBu)}) was tested, and the IC50 [1] was 9.9 nM, the IC50 [2] was 41.1 nM and the IC50 (rat myoblast cells (L6)) was 1910 nM. The “MIC” value ([3]; ATCC BAA-1556) was 4 µg/mL (≈ 3.43 µM).
For `CC(=O)O[C@H]1C[C@@]2(C)[C@@H](C[C@@H](O)[C@H]3[C@@]4(C)CC[C@@H](O)[C@@H](C)[C@@H]4CC[C@@]32C)/C1=C(\CCC=C(C)C)C(=O)O` [Fusidic acid, fusidic acid, reference compound], the “Decrease (%) in CFU/skin vs vehicle control” value [4] was 99% and the “LogCFU/skin after 25 hours (Standard error of the mean − SEM)” value [4] was 4.82 (0.26) LogCFU/skin.
For `CC(=O)NC[C@H]1CN(c2ccc(N3CCOCC3)c(F)c2)C(=O)O1` [Linezolid, reference compound], the MIC [5] was 2 µg/mL (≈ 5.93 µM), the MIC [6] was 2 µg/mL (≈ 5.93 µM) and the MIC [7] was 2 µg/mL (≈ 5.93 µM). The MIC [8] was 2 µg/mL (≈ 5.93 µM).
`CN[C@H](CC(C)C)C(=O)N[C@H]1C(=O)N[C@@H](CC(N)=O)C(=O)N[C@H]2C(=O)N[C@H]3C(=O)N[C@H](C(=O)N[C@H](C(=O)O)c4cc(O)cc(O)c4-c4cc3ccc4O)[C@H](O)c3ccc(c(Cl)c3)Oc3cc2cc(c3O[C@@H]2O[C@H](CO)[C@@H](O)[C@H](O)[C@H]2O[C@H]2C[C@](C)(N)[C@H](O)[C@H](C)O2)Oc2ccc(cc2Cl)[C@H]1O` [Vancomycin, reference compound] was tested, and the MIC [9] was 0.5 µg/mL (≈ 0.345 µM), the MIC [10] was 0.25 µg/mL (≈ 0.173 µM) and the MIC [11] was 0.5 µg/mL (≈ 0.345 µM). The MIC [12] was 0.5 µg/mL (≈ 0.345 µM), the MIC [13] was 1 µg/mL (≈ 0.69 µM) and the MIC [14] was 1 µg/mL (≈ 0.69 µM). It also gave an MIC [15] of 1 µg/mL (≈ 0.69 µM), an MIC [16] of 0.5 µg/mL (≈ 0.345 µM) and an MIC [17] of 1 µg/mL (≈ 0.69 µM). For the same compound, the MIC ([3]; Staphylococcus aureus) was 1 µg/mL (≈ 0.69 µM) and the MIC [18] was 0.5 µg/mL (≈ 0.345 µM).

— US20240174714A1, “TREATMENT OF SKIN DISORDERS” (priority 2021, published 2024)
